Where two headings read alike, the source gives them in different places.
Columns and labels:
[1] = tested on: Primary T Cell (expanded CD3+ T cells); assay: T cell enhancement of cytokines: IL2 measurement (HTRF) in stimulated expanded CD3+ T cells; assay type: cell-based, human; settings: plate-bound anti-CD3 and soluble anti-CD28, 24 h, IL2 by HTRF, read-out: IL-2 Primary T Cell EC50
Procedure: T cells are isolated from whole blood of healthy donors by immunomagnetic negative selection following manufacture's protocol (StemCell Technologies, human T cell isolation kit). Purity of isolated cells is assessed by flow cytometry and yields 95-98% CD3^+ T cells. For expansion of T cells, 1×10^6 cells/well are plated in serum free cell expansion media (ThermoFisher) containing 30 U of recombinant human IL2 (R&D) and stimulated with 25 ul of CD3/CD28 beads (Invitrogen) in 24 well plates for 3-4 days. T cells are then expanded in 175 cm flasks and maintained at a cell density of 1 to 2.5×10^6 cells/ml days by addition of ⅔ of fresh media every 2-3 days. After 10-14 days, cells are frozen in BamBanker freezing media (Thermo) and stored in liquid nitrogen.
For IL2 measurement, expanded CD3^+ T cells are dispensed at 100K cells/well (cultured in X-VIVO 10 Serum-free media) and are stimulated with plate-bound anti-CD3 and soluble anti-CD28 in the presence of vehicle or compound of the disclosure at various concentrations for 24 h. As outlined in the manufacturer's protocol (Cisbio), 16 μL of conditioned media is transferred to a white 384-well low volume plate. Following a 24 h incubation with the anti-IL2 antibodies, the homogenous time resolved fluorescence (HTRF) is measured.

[2] = biological target: T1, MAP4K1 (HPK1) (Homo sapiens, UniProt Q92918); assay: Inhibition of MAP4K1 biochemical enzymatic activity (EZReader 2 electrophoretic mobility shift); settings: HPK1 (Invitrogen), S6K2tide 1.5 μM, 120 min; ATP 26 μM or 1000 μM (not given)
T1 construct: purchased Invitrogen
How it was run: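 Untreated enzyme (0.1-15 nM) was incubated with 1.5 μM fluorescent peptide and 20-1000 μM ATP (apparent Km or 1 mM) in HEPES pH 7.5, MgCl2, DTT, Brij 35 at 25° C. for 60-180 min, with 1% DMSO and a 10-point 4-fold compound series. After an EDTA stop, product/substrate peptide peak ratio was read by mobility shift.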

T1 sequence (Q92918 whole entry): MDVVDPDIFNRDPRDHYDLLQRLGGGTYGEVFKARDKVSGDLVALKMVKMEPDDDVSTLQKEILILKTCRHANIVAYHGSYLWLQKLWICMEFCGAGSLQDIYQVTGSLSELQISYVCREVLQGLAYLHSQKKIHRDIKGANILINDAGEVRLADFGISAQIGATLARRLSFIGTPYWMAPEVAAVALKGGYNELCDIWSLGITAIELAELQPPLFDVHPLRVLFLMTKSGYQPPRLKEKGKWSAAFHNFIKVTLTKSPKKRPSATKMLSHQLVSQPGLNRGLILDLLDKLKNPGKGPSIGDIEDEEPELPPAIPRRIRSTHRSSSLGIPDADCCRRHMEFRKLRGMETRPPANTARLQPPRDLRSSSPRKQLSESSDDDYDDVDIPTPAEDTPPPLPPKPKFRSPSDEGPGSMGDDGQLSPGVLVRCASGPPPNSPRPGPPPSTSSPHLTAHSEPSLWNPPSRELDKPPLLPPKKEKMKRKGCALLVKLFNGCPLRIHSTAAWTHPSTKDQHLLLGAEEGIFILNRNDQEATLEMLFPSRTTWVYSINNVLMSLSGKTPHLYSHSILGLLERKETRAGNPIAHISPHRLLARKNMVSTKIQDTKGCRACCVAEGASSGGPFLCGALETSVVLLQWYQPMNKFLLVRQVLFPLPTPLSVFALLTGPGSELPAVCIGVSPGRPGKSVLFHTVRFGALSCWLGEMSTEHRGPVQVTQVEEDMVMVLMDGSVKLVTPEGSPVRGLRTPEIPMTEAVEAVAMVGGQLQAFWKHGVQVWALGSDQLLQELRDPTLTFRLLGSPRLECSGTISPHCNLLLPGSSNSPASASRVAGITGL

Compound | EC50 ([1]; Homo sapiens, T-cell, 24 h) [nM] | IC50 [2] [nM] | EC50 [1] [nM]
CCC[C@@H](N)c1cnc(O[C@H]2C[C@@H](S(C)(=O)=O)C2)c2cnc(Nc3ccc4c(n3)[C@@H](C)C(C)(C)OC4=O)cc12 (single isomer, unassigned) [Compound 79] | 94 | 0.34 | –
CCC[C@@](C)(N)c1cnc(O[C@H](C)CCS(C)(=O)=O)c2cnc(Nc3ccc4c(n3)CC(C)(C)OC4=O)cc12 (single isomer, unassigned) [Compound 85] | 85 | 0.37 | –
CCS(=O)(=O)CC[C@@H](C)Oc1ncc(C(C)(C)N)c2cc(Nc3ccc4c(n3)[C@@H](C)C(C)(C)OC4=O)ncc12 (single isomer, unassigned) [Compound 98] | 67 | 0.23 | –
CCS(=O)(=O)CC[C@@H](C)Oc1ncc(C(C)(C)N)c2cc(Nc3ccc4c(n3)[C@@H](C)C(C)(C)OC4=O)ncc12 (single isomer, unassigned) [Compound 99] | – | 0.39 | 72
C[C@H](C[C@@H](C)S(C)(=O)=O)Oc1ncc([C@H](N)C2CC2)c2cc(Nc3ccc4c(n3)[C@@H](C)C(C)(C)OC4=O)ncc12 (single isomer, unassigned) [Compound 110] | 36 | 0.22 | –
CCC[C@@H](N)c1cnc(O[C@H]2C[C@@H](S(=O)(=O)CC)C2)c2cnc(Nc3ccc4c(n3)[C@@H](C)C(C)(C)OC4=O)cc12 (single isomer, unassigned) [Compound 115] | 59 | 0.33 | –
CC[C@@](C)(N)c1cnc(O[C@H](C)CCS(=O)(=O)CC)c2cnc(Nc3ccc4c(n3)[C@@H](C)C(C)(C)OC4=O)cc12 (single isomer, unassigned) [Compound 133] | 23 | 0.2 | –
CCS(=O)(=O)[C@H](C)C[C@@H](C)Oc1ncc([C@H](N)C2CC2)c2cc(Nc3ccc4c(n3)[C@@H](C)C(C)(C)OC4=O)ncc12 (single isomer, unassigned) [Compound 138] | 38 | 0.3 | –
CC[C@@](C)(N)c1cnc(O[C@@H](C)CCS(C)(=O)=O)c2cnc(Nc3ccc4c(n3)[C@@H](C)[C@@H](C)OC4=O)cc12 (single isomer, unassigned) [Compound 148] | 26 | 0.57 | –
CC[C@@](C)(N)c1cnc(O[C@@H]2C[C@H](S(C)(=O)=O)[C@H]2C)c2cnc(Nc3ccc4c(n3)[C@@H](C)[C@H](C)OC4=O)cc12 (single isomer, unassigned) [Compound 150] | 14 | 0.32 | –
CC[C@@](C)(N)c1cnc(O[C@H](C)C[C@@H](C)S(C)(=O)=O)c2cnc(Nc3ccc4c(n3)[C@@H](C)[C@@H](C)OC4=O)cc12 (single isomer, unassigned) [Compound 152] | 11 | 0.29 | –
CC[C@@](C)(N)c1cnc(O[C@H](C)CCS(C)(=O)=O)c2cnc(Nc3ccc4c(n3)[C@@H](C)[C@@H](C)OC4=O)cc12 (single isomer, unassigned) [Compound 153] | 25 | 0.27 | –
C[C@@H]1OC(=O)c2ccc(Nc3cc4c(C(C)(C)N)cnc(O[C@@H](C)C[C@@H]5CCCS5(=O)=O)c4cn3)nc2[C@H]1C (single isomer, unassigned) [Compound 155] | 17 | 0.37 | –
C[C@@H]1c2nc(Nc3cc4c(C(C)(C)N)cnc(OCCC[S@](C)(=N)=O)c4cn3)ccc2C(=O)OC1(C)C (single isomer, unassigned) [Compound 168] | 35 | 0.26 | –
CC[C@@H](N)c1cnc(O[C@H]2C[C@@H](S(C)(=O)=O)C2)c2cnc(Nc3ccc4c(n3)[C@@H](C)C(C)(C)OC4=O)cc12 (single isomer, unassigned) [Compound 176] | 69 | 0.23 | –
C[C@@H]1OC(=O)c2cc(Nc3cncc4c(OCCCS(C)(=O)=O)ncc(C(C)(C)N)c34)cnc2[C@H]1C [Compound 7] | 11 | 0.28 | –
CC(C)(N)c1cnc(O[C@H]2C[C@@H](S(C)(=O)=O)C2)c2cnc(Nc3ccc4c(n3)C(C)(C)COC4=O)cc12 [Compound 11] | 39 | 0.29 | –

The remaining lines, values ahead:

EC50 ([1]; Homo sapiens, T-cell, 24 h) [nM] | IC50 [2] [nM] | EC50 [1] [nM] | Compound
28 | 0.07 | – | C[C@@H]1c2nc(Nc3cc4c(C(C)(C)N)cnc(O[C@H]5C[C@H](CS(C)(=O)=O)C5)c4cn3)ccc2C(=O)OC1(C)C (single isomer, unassigned) [Compound 75]
25 | 0.07 | – | C[C@@H]1c2nc(Nc3cc4c(C(C)(C)N)cnc(O[C@H]5C[C@@H](CS(C)(=O)=O)C5)c4cn3)ccc2C(=O)OC1(C)C (single isomer, unassigned) [Compound 76]
26 | 0.2 | – | CCC[C@@](C)(N)c1cnc(O[C@H](C)CCS(C)(=O)=O)c2cnc(Nc3ccc4c(n3)[C@@H](C)[C@H](C)OC4=O)cc12 (single isomer, unassigned) [Compound 86]
15 | 0.14 | – | CC[C@@](C)(N)c1cnc(O[C@H](C)CCS(=O)(=O)CC)c2cnc(Nc3ccc4c(n3)[C@@H](C)[C@H](C)OC4=O)cc12 (single isomer, unassigned) [Compound 92]
– | 0.19 | 9 | CC[C@@](C)(N)c1cnc(O[C@H](C)CCS(=O)(=O)CC)c2cnc(Nc3ccc4c(n3)[C@@H](C)[C@H](C)OC4=O)cc12 (single isomer, unassigned) [Compound 93]
10 | 0.17 | – | CC[C@@](C)(N)c1cnc(O[C@H](C)C[C@@H](C)S(C)(=O)=O)c2cnc(Nc3ccc4c(n3)C3(CC3)[C@@H](C)OC4=O)cc12 (single isomer, unassigned) [Compound 104]
25 | 0.13 | – | CCS(=O)(=O)C[C@H]1C[C@@H](Oc2ncc(C(C)(C)N)c3cc(Nc4ccc5c(n4)[C@@H](C)C(C)(C)OC5=O)ncc23)C1 (single isomer, unassigned) [Compound 112]
21 | 0.17 | – | CCC[C@@](C)(N)c1cnc(O[C@H](C)CCS(C)(=O)=O)c2cnc(Nc3ccc4c(n3)[C@@H](C)C(C)(C)OC4=O)cc12 (single isomer, unassigned) [Compound 126]
– | 0.16 | 9 | CC[C@@](C)(N)c1cnc(O[C@@H]2C[C@H](S(C)(=O)=O)[C@H]2C)c2cnc(Nc3ccc4c(n3)[C@@H](C)[C@H](C)OC4=O)cc12 (single isomer, unassigned) [Compound 151]
85 | 0.18 | – | CC[C@@](C)(N)c1cnc(O[C@H](C)C[C@@H](C)[S@](C)(=N)=O)c2cnc(Nc3ccc4c(n3)C3(CC3)[C@@H](C)OC4=O)cc12 (single isomer, unassigned) [Compound 181]
– | 0.16 | 21 | CC[C@@](C)(N)c1cnc(O[C@H](C)C[C@@H](C)[S@@](C)(=N)=O)c2cnc(Nc3ccc4c(n3)C(C)(C)[C@@H](C)OC4=O)cc12 (single isomer, unassigned) [Compound 182]
– | 0.16 | 43 | CC[C@@](C)(N)c1cnc(O[C@H](C)C[C@@H](C)[S@@](C)(=N)=O)c2cnc(Nc3ccc4c(n3)C(C)(C)[C@@H](C)OC4=O)cc12 (single isomer, unassigned) [Compound 183]
15 | 0.15 | – | CC[C@@](C)(N)c1cnc(O[C@H](C)C[C@@H](C)S(C)(=O)=O)c2cnc(Nc3ccc4c(n3)C(C)(C)[C@H](C)OC4=O)cc12 (single isomer, unassigned) [Compound 186]
39 | 0.12 | – | C[C@@H]1c2nc(Nc3cc4c(C(C)(C)N)cnc(OC5CS(=O)(=O)C5)c4cn3)ccc2C(=O)OC1(C)C [Compound 3]
15 | 0.12 | – | C[C@@H]1OC(=O)c2ccc(Nc3cc4c(C(C)(C)N)cnc(O[C@H]5C[C@@H](S(C)(=O)=O)C5)c4cn3)nc2[C@H]1C [Compound 13]
13 | 0.1 | – | C[C@@H]1OC(=O)c2ccc(Nc3cc4c(C(C)(C)N)cnc(OC5CN(S(C)(=O)=O)C5)c4cn3)nc2[C@H]1C [Compound 15]
15 | 0.08 | – | C[C@@H]1c2nc(Nc3cc4c(C(C)(C)N)ccc(O[C@H]5C[C@@H](S(C)(=O)=O)C5)c4cn3)ccc2C(=O)OC1(C)C [Compound 27]
250 | 0.14 | – | C[C@@H]1c2nc(Nc3cc4c(C(C)(C)N)cnc(N[C@H]5C[C@@H](S(C)(=O)=O)C5)c4cn3)ccc2C(=O)OC1(C)C [Compound 28]
5 | 0.12 | – | CC[C@@](C)(N)c1cnc(O[C@H]2C[C@@H](S(C)(=O)=O)C2)c2cnc(Nc3ccc4c(n3)[C@@H](C)[C@H](C)OC4=O)cc12 [Compound 38]
